Test results from patent US20190345121A1, “PYRENE-BASED COMPOUNDS FOR INTRACELLULAR ORGANELLE IMAGING APPLICATIONS” (priority 2018, published 2019).

What was measured:
DNA = assay: Fluorescence titration with DNA in PBS buffer; assay type: binding; details: PBS buffer pH=7.4, DNA <25 μg mL^−1
From the text: The pyrene segment of the pyrene-based compounds having a pyridinium group of the present invention is thought to play an important role in the interaction of probes made with the pyrene-based compounds having a pyridinium group of the present invention with DNA, as planar aromatic compounds are usually regarded as DNA intercalators. In order to shed some light on the interaction between probes made from the pyrene-based compounds having a pyridinium group of the present invention and DNA, fluorescence spectra were acquired when DNA was added into probes made from the pyrene-based compounds having a pyridinium group of the present invention in a PBS buffer solution (pH=7.4). […] Therefore, the initial fluorescence quenching was attributed to the interaction between probes made from the pyrene-based compounds having a pyridinium group of the present invention and DNA, possibly involving insertion of dye molecules into DNA groves.

[1] = in the presence of DNA in Tris buffer; cited from earlier work
A549 cells = assay: Long-term imaging ability; assay type: cell-based, human
Description: For the long-term imaging ability assessment aspect of the experiment, a Zeiss LSM 710 fluorescence confocal microscope with identical settings were used for photostability comparisons of the probes (561 nm (15 mW) laser line; Laser power percentage 1.0; Digital zoom=1; Pinhole=1A U; Master Gain=500; Digital offset=0). Different imaging plates with A549 cells were incubated for 30 minutes at […] with probes made using solutions of the pyrene-based compounds having a benzothiazolium group of the present invention as well as with probes made from LysoTracker® Red DND-99. Fluorescence confocal microscopy images were obtained at 30-minute intervals (identical fluorescence microscopy settings were used during the experiments). ImageJ (NIH) software was used to analyze the obtained images and average relative fluorescence intensity was plotted as a function of time.
The lack of cellular pH perturbation, in addition to its low toxicity, raised the possibility of using the pyrene-based compounds having a benzothiazolium group of the present invention for long term lysosome imaging. Thus, A549 cells were treated with a pyrene-based compound having a benzothiazolium group of the present invention (500 nM) over a period of 6 hours, which gave stable fluorescent confocal microscopy images as shown in FIG. 4A. […]

## CN(C)CCNc1ccc(O)c2c1C(=O)c1c(O)ccc(NCCN(C)C)c1C2=O [DRAQ5]
DNA
  fluorescence change on initial addition of DNA: partial fluorescence quenching
[1]
  fluorescence quantum yield ϕfl: about 0.003

## CN(C)CCNC(=O)CCc1ccc2n1[B-](F)(F)[N+]1=C(c3ccc[nH]3)C=CC1=C2 [LysoTracker® Red DND-99]
A549 cells; after 1.5 hours
  cell morphology during long-term imaging: significant morphological changes and notable cell shrinkage
A549 cells; images every 30 minutes
  average fluorescence intensity vs. staining time: significant decrease in relative intensity
